Measured values reported in patent publication US8920793B2, “Biodegradable PAOX polymer particle with cationic property” (Industrial Cooperation Foundation Chonbuk National …, priority 2011, dated 2014).

Experiments:
[1] = oral intake; cited from earlier work
[2] = system: acute liver failure induced by acetaminophen (APAP); test: ALT assay in mouse models of APAP-induced acute liver failure; assay type: in vivo; conditions: 10 ug of free PEN, 1 hour before APAP
Protocol: On the assumption that the PAOX polymers rapidly deliver drugs to the cytoplasm due to high hydrolysis rate and proton sponge effects, which leads to more rapid treatment, mouse models of acute liver failure (ALF) were used as experimental models, and pentoxifylline (PEN) was used as a drug model.
In order to investigate the cytotoxicity of PAOX-PEN particles prepared by the method as described in the above section 7, a tetrazolium-based colorimetric MTT assay was performed. Moreover, an alanine transaminase (ALT) assay, which is mainly used for evaluation of liver functions, was performed to evaluate the effect of PAOX-PEN particles in terms of the amount of drug loaded in PAOX-PEN particles and daily dosages.
6-week-old BALB/c female mice were used for the experiments and classified into each group. The PAOX-PEN particles were dispersed in 10 mg/mL (PBS), and each of 50 μL, 100 μL, and 200 μL of the resulting solution was injected into mouse tail veins. In the case of free PEN, the drug solution was administered with the calculation of dose and, only PBS was administered to the negative control groups. After 1 hour, 200 μL of APAP in a concentration of 25 mg/mL was injected intraperitoneally to induce acute liver failure. The mice were sacrificed 10 hours later, and blood was taken from the heart. […]

[3] = system: RAW 264.7 cells; test: Catalase delivery: PMA-induced hydrogen peroxide, DCFH-DA fluorescence by flow cytometry; assay type: cell-based; conditions: pretreatment 12 hours, then PMA stimulation
Protocol: To investigate the ability of PAOX particles to deliver protein drugs, catalase was used as a model protein drug. RAW 264.7 cells (1×10^6 cells) were pretreated with catalase, catalase-loaded PAOX particles, catalase-loaded PLGA particles or empty PAOX particles for 12 hours and then stimulated with 1 μg of PMA (phorbol-12-myristate-13-acetate) to induce the production of hydrogen peroxide. PMA was used to stimulate cells for the production of reactive oxygen species including hydrogen peroxide. Then, DCFH-DA (dichlorofluorescin-diacetate) was added to each well and incubated for 30 minutes. The efficacy of PAOX particles to deliver catalase to cells was evaluated by measuring the intensity of the fluorescence produced by DCFH-DA with a flow cytometry caliber (Becton Dickinson, US).

OCC1CCC(CO)CC1 (stereo not drawn) [1,4-cyclohexanedimethanol]
LD50 [1]: 3,200 mg/kg

CC(=O)CCCCn1c(=O)c2c(ncn2C)n(C)c1=O [free PEN, pentoxifylline]
ALT reduction effect [2]: no ALT reduction effects

B1: catalase (protein, UniProt P00432 2-527, looked up)
Catalase: ADNRDPASDQMKHWKEQRAAQKPDVLTTGGGNPVGDKLNSLTVGPRGPLLVQDVVFTDEMAHFDRERIPERVVHAKGAGAFGYFEVTHDITRYSKAKVFEHIGKRTPIAVRFSTVAGESGSADTVRDPRGFAVKFYTEDGNWDLVGNNTPIFFIRDALLFPSFIHSQKRNPQTHLKDPDMVWDFWSLRPESLHQVSFLFSDRGIPDGHRHMNGYGSHTFKLVNANGEAVYCKFHYKTDQGIKNLSVEDAARLAHEDPDYGLRDLFNAIATGNYPSWTLYIQVMTFSEAEIFPFNPFDLTKVWPHGDYPLIPVGKLVLNRNPVNYFAEVEQLAFDPSNMPPGIEPSPDKMLQGRLFAYPDTHRHRLGPNYLQIPVNCPYRARVANYQRDGPMCMMDNQGGAPNYYPNSFSAPEHQPSALEHRTHFSGDVQRFNSANDDNVTQVRTFYLKVLNEEQRKRLCENIAGHLKDAQLFIQKKAVKNFSDVHPEYGSRIQALLDKYNEEKPKNAVHTYVQHGSHLSAREKANL
inhibitory effect on PMA-induced fluorescence [3]: no inhibitory effects
